Read-outs that look alike come from different tables or passages of the source.
Tested on: iCell cardiomyocytes (human iPSC-derived cardiomyocytes)
Assay: High-content imaging of cytotoxicity and mitochondrial integrity in iPSC-CMs
Format: cell-based
Conditions: Homo sapiens; for viability at 0.01 µM / activity at 0.01 µM / viability at 0.1 µM / activity at 0.1 µM / viability at 1 µM / activity at 1 µM / viability at 10 µM / activity at 10 µM / viability at 100 µM / activity at 100 µM: 0.00 µM = 100.00; for viability at 0.1 µM / activity at 0.1 µM: 0.10 µM
Protocol: Details on cardiomyocyte cell culture are described in detail elsewhere ([Grimm et al. 2015b]; [Sirenko et al. 2013a]). Briefly, tissue-culture treated 384 well plates were gelatinized with 25μL per well of 0.1% (w/v) gelatin in water for 2 h at 37°C and 5% CO2 . Individual vials of cells were thawed for 4 min in a water bath maintained at 37°C. Thawed cells were resuspended in 10ml plating medium containing 1:500 (vol/vol) penicillin/streptomycin solution at room temperature (RT). Live cell counts for each cell suspension were determined by trypan blue staining and cells were further diluted to provide final cell densities of 2×10^5 viable cells/ml. Thus, 5,000 cells suspended in 25μL media were transferred per well after the gelatin solution had been discarded. Cell culture plates were rested for 30 min at RT before they were incubated for 48 h at 37°C and 5% CO2 . Then, a media exchange with 30μL of fresh maintenance medium containing 1:500 (vol/vol) penicillin/streptomycin solution was performed, and cell media were subsequently changed every 48 h for 12 d. On the experiment day, the medium was completely exchanged with either 25μL (for Ca^2+ flux assay) or 40μL (for imaging) of fresh medium.
Cytotoxicity and effects on mitochondrial integrity of various PCBs and PCB metabolites in induced pluripotent stem cell-CMs (iPSC-CMs) were assessed using high-content cellular imaging in ImageXpress® Micro Confocal (Molecular Devices) as detailed in ([Grimm et al. 2015b]). Cells in 40μL maintenance media were treated with 10μL of 5× chemical solutions to provide test chemicals at final assay concentrations ranging from 0.01 to 100μM . […] Next, sample wells were treated with 50μL equilibrated 2× concentrated staining solution (maintenance medium containing Hoechst 33342, 4μg/mL and MitoTracker™ Orange, 0.4μM ). Microplates were then incubated for 15 min at 37°C and 5% CO2 before cells were washed twice with 30μL maintenance medium. All media were aspirated and discarded, and cells were fixed with […] of a 3.7% formaldehyde solution for 15 min at 37°C and 5% […] . Fixed cells were washed 3× with 25μL PBS before image acquisition using the DAPI (Hoechst 33342) and Cy3 (MitoTracker™ Orange) filters at 10× magnification on the ImageXpress® Micro Confocal high-content confocal microscope (Molecular Devices). The multiwavelength cell scoring applications module in MetaXpress® was used to analyze acquired images.
Phenotypic responses were quantitatively assessed using concentration–response modeling as detailed elsewhere ([Sirenko et al. 2017]). Briefly, phenotypic readouts were normalized to vehicle controls and fit to a four-parameter logistic model in R studio software (version 3.1.1; R Development Core Team). Following EPA guidance on dose–response modeling, a cutoff of one standard deviation across means of vehicle control (i.e., 0.5% vol/vol DMSO in cell culture media) wells was applied to determine the point-of-departure (POD) values ([U.S. EPA 2012]). In the absence of a concentration–response, the highest tested concentration (i.e., 100μM ) was assigned as “no observable adverse effect level.” The concentration–response assessment R script, as well as templates for vehicle and concentration–response data, are available as a supplement to Sirenko et al. ([2017]). The ability of physicochemical properties to predict differences in PODs were evaluated by multiregression and mixed-effects modeling using R.

[1] = Cardiomyocyte, 1.5 h, read-out: cm.cam.90min
[2] = Cardiomyocyte, 1.5 h, read-out: cm.mii.90min
[3] = Cardiomyocyte, 1.5 h, read-out: cm.mito.90min
[4] = Cardiomyocyte, 1.5 h, read-out: cm.tc.90min
[5] = Cardiomyocyte, 24 h, read-out: cm.cam.24hrs
[6] = Cardiomyocyte, 24 h, read-out: cm.mii.24hrs
[7] = Cardiomyocyte, 24 h, read-out: cm.mito.24hrs
[8] = Cardiomyocyte, 24 h, read-out: cm.tc.24hrs

Oc1ccc(O)c(-c2ccc(Cl)cc2)c1 [2',5'-DiOH PCB3]
viability at 0.01 µM [1]: 104%
activity at 0.01 µM [2]: 107%
activity at 0.01 µM [3]: 103%
viability at 0.01 µM [4]: 104%
viability at 0.1 µM [1]: 94.2%
activity at 0.1 µM [2]: 114%
activity at 0.1 µM [3]: 93.9%
viability at 0.1 µM [4]: 94.3%
viability at 1 µM [1]: 100%
activity at 1 µM [2]: 108%
activity at 1 µM [3]: 100%
viability at 1 µM [4]: 100%
viability at 10 µM [1]: 101%
activity at 10 µM [2]: 84.5%
activity at 10 µM [3]: 99.4%
viability at 10 µM [4]: 101%
viability at 100 µM [1]: 0%
activity at 100 µM [2]: 0%
activity at 100 µM [3]: 0%
viability at 100 µM [4]: 0%
viability at 0.01 µM [5]: 84.9%
activity at 0.01 µM [6]: 104%
activity at 0.01 µM [7]: 82.4%
viability at 0.01 µM [8]: 85.7%
viability at 0.1 µM [5]: 100%
activity at 0.1 µM [6]: 110%
activity at 0.1 µM [7]: 101%
viability at 0.1 µM [8]: 100%
viability at 1 µM [5]: 97.7%
activity at 1 µM [6]: 98.1%
activity at 1 µM [7]: 94.2%
viability at 1 µM [8]: 97.9%
viability at 10 µM [5]: 45.5%
activity at 10 µM [6]: 157%
activity at 10 µM [7]: 40.2%
viability at 10 µM [8]: 45.4%
viability at 100 µM [5]: 0%
activity at 100 µM [6]: 0%
activity at 100 µM [7]: 0%
viability at 100 µM [8]: 0%
minimal effective concentration (iPSC-CM, 1.5 h, iPSC-CM, read-out: cm.cam.90min POD): 32.4 µM
minimal effective concentration (iPSC-CM, 1.5 h, iPSC-CM, read-out: cm.mii.90min POD): 7.9 µM
minimal effective concentration (iPSC-CM, 1.5 h, iPSC-CM, read-out: cm.mito.90min POD): 12.7 µM
minimal effective concentration (iPSC-CM, 1.5 h, iPSC-CM, read-out: cm.tc.90min POD): 33.4 µM
minimal effective concentration (iPSC-CM, 24 h, iPSC-CM, read-out: cm.cam.24hrs POD): 1.84 µM
minimal effective concentration (iPSC-CM, 24 h, iPSC-CM, read-out: cm.mii.24hrs POD): 2.28 µM
minimal effective concentration (iPSC-CM, 24 h, iPSC-CM, read-out: cm.mito.24hrs POD): 0.97 µM
minimal effective concentration (iPSC-CM, 24 h, iPSC-CM, read-out: cm.tc.24hrs POD): 1.88 µM

Oc1ccc(O)c(-c2ccc(Cl)cc2)c1 [2',5'-diOH-PCB 3, 4-Chloro-2′,5′-dihydroxybiphenyl]
minimal effective concentration (Cardiomyocyte, 1.5 h, cardiomyocytes (cm), cam, 90 min, read-out: POD cm.cam.90min): 32.4 µM
minimal effective concentration (Cardiomyocyte, 1.5 h, cardiomyocytes (cm), mii, 90 min, read-out: POD cm.mii.90min): 7.9 µM
minimal effective concentration (Cardiomyocyte, 1.5 h, cardiomyocytes (cm), mito, 90 min, read-out: POD cm.mito.90min): 12.7 µM
minimal effective concentration (Cardiomyocyte, 1.5 h, cardiomyocytes (cm), tc, 90 min, read-out: POD cm.tc.90min): 33.4 µM
minimal effective concentration (Cardiomyocyte, 24 h, cardiomyocytes (cm), cam, 24 hrs, read-out: POD cm.cam.24hrs): 1.84 µM
minimal effective concentration (Cardiomyocyte, 24 h, cardiomyocytes (cm), mii, 24 hrs, read-out: POD cm.mii.24hrs): 2.28 µM
minimal effective concentration (Cardiomyocyte, 24 h, cardiomyocytes (cm), mito, 24 hrs, read-out: POD cm.mito.24hrs): 0.97 µM
minimal effective concentration (Cardiomyocyte, 24 h, cardiomyocytes (cm), tc, 24 hrs, read-out: POD cm.tc.24hrs): 1.88 µM

Reference: paper PMC7377239, “Cardiovascular Effects of Polychlorinated Biphenyls and Their Major Metabolites” (Environmental Health Perspectives, 2020)
